Laboratory results: patent publication US10947203B2, “1,4,5-substituted 1,2,3-triazole analogues as antagonists of the pregnane X receptor” (ST. JUDE CHILDREN'S RESEARCH HOSPITAL, priority 2016, dated 2021)

How the values were obtained:
[1] = test system: primary human hepatocytes (PHHs); test: paclitaxel metabolism in primary human hepatocytes; assay type: cell-based; conditions: 1 μM PTX with 10 μM test compound; 24 and 48 hr; FIGS. 1B, 1C
Procedure: (§1) The concentrations of 1′-OH MDZ (MDZ metabolite) in the media of each pretreatment condition were determined using LC/MS/MS as described in the Examples. […] PHHs were also treated with 1 μM of PTX in the absence and presence of 10 μM of the test compound, and then the concentrations of major PTX metabolites, 3-OH PTX (by CYP3A4) and 6α-OH PTX (by CYP2C8), were determined using LC/MS/MS at 24 hr and 48 hr of treatment, respectively.
(§2) Midazolam and 1-OH midazolam were from BD Gentest. Midazolam-D4 maleate (internal standard, IS) was from Cerilliant; Paclitaxel and 3′-p-hydroxypaclitaxel were from Sigma; and 6u-hydroxy Paclitaxel was from Cayman Chemical. 100 μl of reaction medium at each different time point was collected and 200 μl of acetonitrile containing IS was added. This solution was then vigorously mixed for 10 min and centrifuged at 10,000 rpm for 10 min. Calibration and quality control samples were prepared. 5 μl of the samples was injected onto a Waters Acquity UPLC BEH C18 column (2.1x 50 mm, 1.7 μm), using a Waters Acquity UPLC system. Chromatographic separation was performed by gradient elution at a constant flow rate of 1 mL/min for 15 min. The gradient consisted of 0.1% formic acid water (mobile phase A) and methanol (mobile phase B). […] Nitrogen was applied as curtain, collision and drying gas at 60 psi. […]

[2] = test system: hPXR-mediated increase in CYP3A expression; test: liver Cyp3a11 mRNA and CYP3A protein in hPXR-tg mice; assay type: in vivo, mouse; conditions: RIF 10 mg/kg plus test compound 200 mg/kg, 72 h, FIGS. 3A-3C
Procedure: Briefly, mouse liver Cyp3a11 mRNA was analyzed by real-time PCR in hPXR-tg mice treated with vehicle control (Vehicle), RIF (10 mg/kg) or RIF (10 mg/kg) plus test compound (200 mg/kg) for 72 h. Each data point represents the level of Cyp3a11 mRNA (FIG. 3A) or protein (FIG. 3B) in an individual mouse; lines indicate the mean value for 3-7 mice per group.
hPXR-tg mice were generated previously (Xie et al., 2000). Five mice in each group were dosed orally with vehicle control or 10 mg/kg RIF, every 24 h for three days. Eight hours after the last dose, the animals were euthanized by C02 and liver tissues were harvested. A piece of each liver was preserved in RNAlater solution (Invitrogen) at 4° C. for mRNA isolation. The remaining tissue was instantly frozen in liquid nitrogen and stored at −80° C. for total protein extraction. […]

[3] = test system: RIF-induced metabolism of the anesthetic (CYP3A11); test: loss of righting reflex (LORR) assay in hPXR-tg mice; assay type: in vivo, mouse; conditions: RIF 10 mg/kg plus test compound 200 mg/kg every 24 h for three days, FIG. 5
Procedure: Loss of righting reflex (LORR) duration was recorded as described in Examples to measure metabolism of the anesthetic ([…]) in hPXR-tg, mice before and after treatment with vehicle, RIF, and RIF plus the test compound as indicated. Each data point represents LORR duration in an individual mouse; lines indicate LORR duration change in individual mouse before and after treatment. P values indicate comparison of values by paired t test.
Mice were intraperitoneally injected with 250 mg/kg of 2,2,2-tribromoethanol, which is metabolically cleared only via mouse CYP3A11. After the mice lost their righting reflex, they were placed on their backs under a heat lamp. The duration of LORR was measured as the time from the start of LORR to recovery (i.e., when mice could right themselves after being placed on their backs twice within 1 min). A baseline LORR duration was established for each mouse at the administered dose of 2,2,2-tribromoethanol. […] The paired Student's t-test was used to compare LORR duration between baseline and after treatment. A P value <0.05 was considered to indicate a significant difference between compared groups.

[4] = test system: primary human hepatocytes (PHHs); test: midazolam metabolism in primary human hepatocytes pretreated with hPXR agonist; assay type: cell-based; conditions: 10 μM test compound; 72 hr pretreatment with DMSO, 1.6 μM RIF, 0.5 or 5 μM PTX; then 3.3 μM MDZ 4 h; FIG. 1A
Procedure: as §1, §2

[5] = test system: hPXR-mediated CYP3A4 promoter reporter activity; test: CYP3A4 promoter reporter activity in hPXR-CYP3A4-luc reporter mice (bioluminescence imaging); assay type: in vivo, mouse; conditions: RIF 10 mg/kg plus test compound 150 mg/kg every 24 h for 2 days; imaging 10 h after last treatment; FIG. 4
Procedure: Individual mouse received 3 rounds of sequential treatment of vehicle control (Vehicle), RIF (10 mg/kg) and RIF (10 mg/kg) plus the test compound (150 mg/kg) every 24 h for 2 days, respectively, with a washout period of 72-hour between two rounds of treatment. The luciferase activity in these reporter mice was recorded by bioluminescence imaging 10 h after the last treatment of each round, and the induction of CYP3A4 promoter reporter activity was calculated as described in Examples. Each data point represents the induction of CYP3A4 promoter reporter activity by the treatment in an individual mouse, and dos lines indicate the CYP3A4 promoter reporter activity change in individual mouse after following round of treatment. p values are indicated between the two treatment compared by paired t test.
10 hours after the last treatment of each round, the mice were imaged as described above. Uniform regions of interest were drawn around the liver, and total photon flux was analyzed with Living Image 3.2 software (Xenogen). The induction of CYP3A4-luc reporter activity was calculated using the imaging from the same mouse as follows: induction rate=total photon flux (after treatment)/total photon flux (before treatment).

For `COc1ccc(OC)c(-n2nnc(S(=O)(=O)c3ccc(C(C)(C)C)cc3)c2C)c1` [4-((4-(tert-butyl)phenyl)sulfonyl)-1-(2,5-dimethoxyphenyl)-5-methyl-1H-1,2,3-triazole], the “metabolism of PTX to 3-OH PTX and 6α-OH PTX” value [1] was “effectively blocked”, the “hPXR-mediated increase in CYP3A expression (liver Cyp3a11 mRNA, CYP3A protein)” value [2] was “inhibits the hPXR-mediated increase in CYP3A expression” and the “RIF-induced metabolism of the anesthetic, as determined by LORR duration” value [3] was “significantly inhibited”. For the same compound, the “metabolism of MDZ (1′-OH MDZ concentration in media)” value [4] was “essentially blocked” and the “RIF-induced expression of the reporter under the control of the CYP3A4 promoter” value [5] was “significantly reduced”.
